{
  "source": "patent US20230348447A1",
  "about": "“OXAZOLIDINONE COMPOUNDS, LIPOSOME COMPOSITIONS COMPRISING OXAZOLIDINONE COMPOUNDS AND METHOD OF USE THEREOF” (priority 2020, published 2023)",
  "key": {"M. abscessus": {"test_system": "M. abscessus", "assay": "MIC in nontuberculosis mycobacteria (microbroth dilution, resazurin)", "assay_type": "cell-based, Mycobacterium abscessus", "settings": "Mycobacteroides abscessus, read-out: MIC"}, "M.tb H37Rv": {"test_system": "M.tb H37Rv", "assay": "Broth microdilution MIC with Alamar blue endpoint (MABA) / OD600", "assay_type": "cell-based, Mycobacterium tuberculosis", "settings": "Mycobacterium tuberculosis, H37RV"}, "M. massiliense": {"test_system": "M. massiliense", "assay": "MIC in nontuberculosis mycobacteria (microbroth dilution, resazurin)", "assay_type": "cell-based, Mycobacterium massiliense"}, "M. chelonae": {"test_system": "M. chelonae", "assay": "MIC in nontuberculosis mycobacteria (microbroth dilution, resazurin)", "assay_type": "cell-based, Mycobacterium chelonae", "settings": "Mycobacteroides chelonae, read-out: MIC"}, "M.tb Erdman": {"test_system": "M.tb Erdman", "assay": "Broth microdilution MIC with Alamar blue endpoint (MABA) / OD600", "assay_type": "cell-based, Mycobacterium tuberculosis", "settings": "Mycobacterium tuberculosis"}, "[1]": {"assay": "Aqueous solubility (visually clear solutions)", "assay_type": "physicochemical", "settings": "aqueous, 1 N HCl and/or water added", "description": "Working stocks of the compounds were prepared as follows: to an aliquot of a compound (free base) in a powder form 1-1.5 equivalents of HCl in the form of 1 N aqueous solution was added, and the mixture was vortexed until homogeneity. To the resulting cake or syrup, water was added typically to the final 10 mg/ml, and complete dissolution was observed. In some instances, 0.95 equivalents of HCl were added to the free base form of the drug, and 20 mg/ml stock solution was prepared.\nAqueous solubility of the compounds of the present disclosure is illustrated by the following observations of obtaining visually clear solutions: […]"}, "MRSA ATCC BAA-1556": {"test_system": "MRSA ATCC BAA-1556", "assay": "MIC against methicillin resistant Staphylococcus aureus (MRSA)", "settings": "read-out: MRSA MIC, ATCC BAA-1556"}, "[2]": {"test_system": "African green monkey kidney (Vero; ATCC # CCL81) cells", "assay": "In vitro cytotoxicity (PrestoBlue cell viability), Vero", "assay_type": "cell-based", "settings": "Chlorocebus sabaeus, Vero, 72 h; read-out: Cell viability IC50, VERO"}, "MRSA 880 NR-49120": {"test_system": "MRSA 880 NR-49120", "assay": "MIC against methicillin resistant Staphylococcus aureus (MRSA)", "settings": "read-out: MRSA MIC, 880 NR-49120"}, "M.avium": {"test_system": "M.avium", "assay": "MIC in nontuberculosis mycobacteria (microbroth dilution, resazurin)", "assay_type": "cell-based, Mycobacterium avium", "settings": "Mycobacterium avium, read-out: MIC"}, "MRSA ATCC 43300": {"test_system": "MRSA ATCC 43300", "assay": "MIC against methicillin resistant Staphylococcus aureus (MRSA)", "settings": "read-out: MRSA MIC, ATCC 43300"}, "[3]": {"assay": "In vitro burst release of liposomal drug in plasma, human", "settings": "mouse or human plasma, 20 min 37° C., 0.5 M AS liposomes, 40-65 mol% Chol (FIG. 5A, 5B)", "procedure": "The plasma was thawed, if necessary, adjusted to pH 7.4 with 1 N HCl, and sequentially filtered through glass microfiber filters (GF/C), 1 µm polyethersulfone (PES), and 0.22 µm PES filters. Plasma (80 µl) was mixed with liposomal drug formulations (20 µl) in a 0.5 ml Eppendorf tube. The mixture was subsequently incubated for 20 min at 37° C. and then put into chilled water.\nIncubation time was 20 min."}, "[4]": {"assay": "Liposome loading / encapsulation efficiency (General protocol)", "settings": "for maximum drug load: HSPC:Chol 3:2, 0.5 mol% PEG-DSG (Example 14)"}, "[5]": {"test_system": "human hepatocyte/liver (HepG2; ATCC #HB8065) cells", "assay": "In vitro cytotoxicity (PrestoBlue cell viability), HepG2", "assay_type": "cell-based", "settings": "Homo sapiens, HepG2, 72 h; read-out: Cell viability IC50, HepG2"}, "M. kansasii": {"test_system": "M. kansasii", "assay": "MIC in nontuberculosis mycobacteria (microbroth dilution, resazurin)", "assay_type": "cell-based", "settings": "Mycobacterium kansasii, read-out: MIC"}, "[6]": {"test_system": "mitochondrial protein synthesis (COX-1/SDH-A ratio) in H9C2 rat heart myoblast cells", "assay": "Mitochondrial protein synthesis inhibition (MitoBiogenesis in-cell ELISA, COX-1/SDH-A)", "assay_type": "cell-based", "settings": "120 h, five days, read-out: MPS IC50"}},
  "note": "Like-named read-outs stand apart in the source and are kept apart here.",
  "data": [
    {"smiles": "CC(=O)NC[C@H]1CN(c2ccc(-c3ccc(-c4nnn(CCN(C)C)n4)nc3)c(F)c2)C(=O)O1", "note": "[AKG-38]", "values": [
      {"measurement": "MIC", "setting": "M. abscessus; M. abscessus sbsp. abscessus strain 21", "value": 0.06, "unit": "mg/L"},
      {"measurement": "MIC", "setting": "M. abscessus; M. abscessus sbsp. abscessus strain 1513", "value": 32, "unit": "mg/L"},
      {"measurement": "MIC", "setting": "M. abscessus; M. abscessus sbsp. abscessus strain 1948", "value": 0.06, "unit": "mg/L"},
      {"measurement": "MIC", "setting": "M.tb H37Rv; as determined in Example 2, read-out: MIC (H37Rv)", "value": 0.06, "unit": "mg/L"},
      {"measurement": "MIC", "setting": "M.tb H37Rv; read-out: Mycobacterium tuberculosis MIC, H37Rv", "value": 0.06, "unit": "mg/L"},
      {"measurement": "MIC", "setting": "M. massiliense; M. massiliense strain M154", "value": 0.25, "unit": "mg/L"},
      {"measurement": "MIC", "setting": "M. massiliense; Mycobacteroides abscessus, CIP108297, M. massiliense strain CIP 108297, read-out: MIC", "value": 0.5, "unit": "mg/L"},
      {"measurement": "MIC", "setting": "M. massiliense; Mycobacteroides abscessus, M. massiliense strain CRM0019, read-out: MIC", "value": 0.25, "unit": "mg/L"},
      {"measurement": "MIC", "setting": "M. chelonae; M. chelonae strain 49", "value": 0.06, "unit": "mg/L"},
      {"measurement": "MIC", "setting": "M. chelonae; M. chelonae strain 69", "value": 0.5, "unit": "mg/L"},
      {"measurement": "MIC", "setting": "M. chelonae; M. chelonae strain 35752", "value": 0.06, "unit": "mg/L"},
      {"measurement": "MIC", "setting": "M.tb Erdman; ERDMAN, read-out: Mycobacterium tuberculosis MIC, Erdman", "value": 0.06, "unit": "mg/L"},
      {"measurement": "MIC", "setting": "M.tb Erdman; M. tuberculosis Erdman / H37Rv, strains not separated, read-out: MIC", "value": 0.06, "unit": "mg/L"},
      {"measurement": "Concentration % (w/w) of free base (visually clear solution)", "setting": "[1]", "value": "7.1 % (w/w)"},
      {"measurement": "MIC", "setting": "MRSA ATCC BAA-1556", "value": 1.85, "unit": "mg/L"},
      {"measurement": "IC50", "setting": "[2]", "value": 395, "unit": "mg/L"},
      {"measurement": "MIC", "setting": "MRSA 880 NR-49120", "value": 0.617, "unit": "mg/L"},
      {"measurement": "MIC", "setting": "M.avium; M. avium sbsp. avium strain 2285 R", "value": 0.06, "unit": "mg/L"},
      {"measurement": "MIC", "setting": "M.avium; M. avium sbsp. avium strain 2285 S", "value": 0.125, "unit": "mg/L"},
      {"measurement": "MIC", "setting": "M.avium; M. avium sbsp. avium strain 3993", "value": 0.125, "unit": "mg/L"},
      {"measurement": "MIC", "setting": "MRSA ATCC 43300", "value": 1.85, "unit": "mg/L"},
      {"measurement": "burst release phenomenon in plasma in vitro", "setting": "[3]", "value": "observed in both human and mouse plasma for the formulations with cholesterol content of 40 mol.% and 45 mol.%, but not at cholesterol content of 50 mol.% or more"},
      {"measurement": "maximum drug load", "setting": "[4]; 0.5 M AS", "value": "818-842 g/mol PhL"},
      {"measurement": "maximum drug load", "setting": "[4]; 1 N TEA-SOS", "value": 989, "unit": "g/mol PhL"},
      {"measurement": "liposome aggregation during drug loading", "setting": "[4]; 30 mol% cholesterol, 1 N TEA-SOS, AKG-28: 5 mol% PEG-DSG or PEG-DSPE, AKG-38: 5 mol% PEG-DSPE", "value": "irreversibly aggregated during the drug loading"},
      {"measurement": "drug load", "setting": "[4]; 30 mol% cholesterol, 5 mol % PEG-DSG, 1 N TEA-SOS", "value": 462.4, "unit": "g/mol PhL"},
      {"measurement": "IC50", "setting": "[5]", "value": 97, "unit": "mg/L"},
      {"measurement": "MIC", "setting": "M. kansasii; M. kansasii strain 662", "value": "> 32", "unit": "mg/L"},
      {"measurement": "MIC", "setting": "M. kansasii; M. kansasii strain 732", "value": 0.03, "unit": "mg/L"},
      {"measurement": "MIC", "setting": "M. kansasii; M. kansasii strain 824", "value": 0.06, "unit": "mg/L"},
      {"measurement": "MIC", "setting": "M. kansasii; M. kansasii strain MK13D6", "value": 0.03, "unit": "mg/L"},
      {"measurement": "MIC", "setting": "M. kansasii; M. kansasii strain WT171017", "value": 0.03, "unit": "mg/L"},
      {"measurement": "IC50", "setting": "[6]", "value": 0.041, "unit": "mg/L"}
    ]}
  ]
}
